Test results from ChEMBL document CHEMBL1201862, “PubChem BioAssay data set” (2004).
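Cells were grown in 96-well plates and exposed to each compound for 48 hours at five concentrations; endpoints were interpolated linearly between bracketing concentrations, or set to the highest concentration if not reached. GI50: concentration for 50% inhibition of growth.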 Active and inactive are the calls of the source. No stated cut-off is given here; in the data, active = GI50 up to about 1.1 µM and inactive = higher.

Columns and labels:
Experiment in all cases: inhibition of tumour cell growth, NCI panel, 48 h
M14 = tested on: M14
LOX IMVI = tested on: LOX IMVI
MOLT-4 = tested on: MOLT-4
MDA-MB-435 = tested on: MDA-MB-435
ACHN = tested on: ACHN
SN12C = tested on: SN12C
SF-539 = tested on: SF-539
PC-3 = tested on: PC-3
NCI-H226 = tested on: NCI-H226
UO-31 = tested on: UO-31
SF-268 = tested on: SF-268
HCT-15 = tested on: HCT-15
SK-MEL-28 = tested on: SK-MEL-28
NCI-H522 = tested on: NCI-H522
DU-145 = tested on: DU-145
Hs-578T = tested on: Hs-578T
OVCAR-8 = tested on: OVCAR-8
UACC-62 = tested on: UACC-62
SNB-75 = tested on: SNB-75

Compound | GI50 (M14) | GI50 (LOX IMVI) | GI50 (MOLT-4) | GI50 (MDA-MB-435) | GI50 (ACHN) | GI50 (SN12C) | GI50 (SF-539) | GI50 (PC-3) | GI50 (NCI-H226) | GI50 (UO-31) | GI50 (SF-268) | GI50 (HCT-15) | GI50 (SK-MEL-28) | GI50 (NCI-H522) | GI50 (DU-145) | GI50 (Hs-578T) | GI50 (OVCAR-8) | GI50 (UACC-62) | GI50 (SNB-75)
C=CCSC1=N/C(=C\c2ccco2)C(=O)N1CC=C | > 100 µM (inactive) | 69.3 µM (inactive) | 25.9 µM (inactive) | 52.5 µM (inactive) | 34.1 µM (inactive) | > 100 µM (inactive) | > 100 µM (inactive) | 46.7 µM (inactive) | 34.4 µM (inactive) | 53 µM (inactive) | > 100 µM (inactive) | 57.9 µM | 72.4 µM (inactive) | 43.9 µM (inactive) | 90.4 µM (inactive) | > 100 µM (inactive) | > 100 µM (inactive) | 39.4 µM (inactive) | 
CC[C@H](C)[C@H](NC(=O)N(CCC#N)CCN(CCN(C(=O)N[C@@H](Cc1ccccc1)C(=O)OC)c1ccccc1)C(=O)N[C@H](C(=O)OC)C(C)C)C(=O)OC | 20.5 µM (inactive) | 20.7 µM (inactive) | 4.57 µM (inactive) | 16.6 µM (inactive) | 13.8 µM (inactive) | 25.6 µM (inactive) | 23.6 µM (inactive) | 16.1 µM (inactive) | 21.5 µM (inactive) | 18.1 µM (inactive) | 21.5 µM (inactive) | 21.8 µM | 15 µM (inactive) |  | 20 µM (inactive) | 23.7 µM (inactive) | 22.6 µM (inactive) | 11.5 µM (inactive) | 19.9 µM (inactive)
Cc1cc(-c2ccccc2)nc2oc(=O)n(C)c12 | > 100 µM (inactive) | > 100 µM (inactive) | > 100 µM (inactive) | > 100 µM (inactive) | > 100 µM (inactive) | 71.8 µM (inactive) |  | > 100 µM (inactive) | > 100 µM (inactive) | > 100 µM (inactive) | > 100 µM (inactive) | > 100 µM | > 100 µM (inactive) | > 100 µM (inactive) | > 100 µM (inactive) | > 100 µM (inactive) | 90.4 µM (inactive) | > 100 µM (inactive) | 
C/C(=N\O)c1cccc(Nc2nc3ccccc3c3occc23)c1 | 12.7 µM (inactive) | 13.6 µM (inactive) | 5.96 µM (inactive) | 10.1 µM (inactive) | 10.3 µM (inactive) | 15.5 µM (inactive) | 15.5 µM (inactive) | 12.1 µM (inactive) | 1.72 µM (inactive) | 0.0303 µM (active) | 11.9 µM (inactive) | 7.94 µM | 14.3 µM (inactive) |  | 13.2 µM (inactive) | 12.1 µM (inactive) | 16.6 µM (inactive) | < 0.01 µM (active) | 16.2 µM (inactive)
COc1ccc2c(c1)CCc1cc(C(N)=O)c3nnnn3c1-2 | > 100 µM (inactive) | > 58.1 µM (inactive) | > 38.8 µM (inactive) | > 100 µM (inactive) | 30.5 µM (inactive) | 99.8 µM (inactive) | 78.7 µM (inactive) | > 57.9 µM (inactive) | > 100 µM (inactive) |  | 2.98 µM (inactive) | > 100 µM | > 100 µM (inactive) | 27.9 µM (inactive) | 23.7 µM (inactive) | 0.408 µM (active) | > 52.7 µM (inactive) | 1.67 µM (inactive) | 
CCOC(=O)c1c[nH]c(C(=O)OCC)c1-c1cccn1-c1ccccc1 | 20.2 µM (inactive) | 16.9 µM (inactive) | 15.3 µM (inactive) | 27.5 µM (inactive) | 26.2 µM (inactive) | 27 µM (inactive) |  | 18.7 µM (inactive) | 15.1 µM (inactive) | 18.4 µM (inactive) | 25.5 µM (inactive) | 30.4 µM | 32.4 µM (inactive) | 13 µM (inactive) | 43.2 µM (inactive) | 9.64 µM (inactive) | 19.2 µM (inactive) | 17.4 µM (inactive) | 7.06 µM (inactive)
CCOC(=O)c1sc2nc(SC)nc3c2c1NCN3c1ccc2c(c1)OCCCO2 | 38.2 µM (inactive) | > 100 µM (inactive) | > 100 µM (inactive) | > 100 µM (inactive) | 32.1 µM (inactive) | 49.7 µM (inactive) | 13.9 µM (inactive) | > 100 µM (inactive) | 3.53 µM (inactive) | 37.9 µM (inactive) | 13.3 µM (inactive) | > 100 µM | 56.1 µM (inactive) | > 100 µM (inactive) | > 100 µM (inactive) | 2.57 µM (inactive) | 7.46 µM (inactive) | > 100 µM (inactive) | 
COc1c2c(c(CC=C(C)C)c3oc(=O)c(-c4ccc(O)cc4)c(O)c13)OC(C)(C)C=C2 [LONCHOCARPIC ACID] | 25.8 µM (inactive) | 34.4 µM (inactive) | 24.9 µM (inactive) | 15.2 µM (inactive) | 22.1 µM (inactive) | 27.5 µM (inactive) | 15.1 µM (inactive) | 31.5 µM (inactive) | 21.5 µM (inactive) | 27.8 µM (inactive) | 14.1 µM (inactive) | 11.9 µM | 25.9 µM (inactive) | 23 µM (inactive) | 38.1 µM (inactive) | 36.2 µM (inactive) | 29 µM (inactive) | 21.2 µM (inactive) | 
CC(=O)N1c2cc(/N=N/N(C)C)ccc2NC(=O)CC1C (configuration not stated) | > 100 µM (inactive) |  | > 100 µM (inactive) | > 100 µM (inactive) | > 100 µM (inactive) | > 100 µM (inactive) |  | > 100 µM (inactive) | > 100 µM (inactive) | > 100 µM (inactive) | > 100 µM (inactive) | > 100 µM | > 100 µM (inactive) | > 100 µM (inactive) | > 100 µM (inactive) | > 100 µM (inactive) | > 100 µM (inactive) | > 100 µM (inactive) | > 100 µM (inactive)
CCOC(=O)CC1(N)CC2c3ccccc3OC(=O)C2C(=O)N1 (configuration not stated) | > 100 µM (inactive) | > 100 µM (inactive) | > 100 µM (inactive) | > 100 µM (inactive) | > 100 µM (inactive) | > 100 µM (inactive) |  | > 100 µM (inactive) | > 100 µM (inactive) | > 100 µM (inactive) | > 100 µM (inactive) | > 100 µM | > 100 µM (inactive) | > 100 µM (inactive) | > 100 µM (inactive) | > 100 µM (inactive) | > 100 µM (inactive) | > 100 µM (inactive) | > 100 µM (inactive)
COc1cc2c(cc1OC)C(=O)N(c1ccc(O)cc1)C2 | > 100 µM (inactive) | > 100 µM (inactive) | > 100 µM (inactive) | > 100 µM (inactive) | > 100 µM (inactive) | > 100 µM (inactive) | > 100 µM (inactive) | > 100 µM (inactive) | > 100 µM (inactive) |  | > 100 µM (inactive) | > 100 µM | > 100 µM (inactive) | > 100 µM (inactive) | > 100 µM (inactive) | > 100 µM (inactive) | > 100 µM (inactive) | > 100 µM (inactive) | 
CCC(C)C(Nc1c2ccccc2nc2c(C(=O)NCCN(C)C)cccc12)C(=O)O (configuration not stated) | 16.2 µM (inactive) | 4.8 µM (inactive) | 7.59 µM (inactive) | 18.1 µM (inactive) | 7.94 µM (inactive) | 13.6 µM (inactive) |  | 14 µM (inactive) | 6.92 µM (inactive) | 8.83 µM (inactive) | 13.6 µM (inactive) | 7.45 µM | 23.6 µM (inactive) | 12.7 µM (inactive) | 38.1 µM (inactive) | 18.4 µM (inactive) | 4.45 µM (inactive) | 15.9 µM (inactive) | 18 µM (inactive)
